# Measurements: patent publication US20230322785A1, “ADENOSINE A2A AND A2B RECEPTOR DUAL ANTAGONISTS FOR IMMUNO-ONCOLOGY” (Merck Sharp & Dohme LLC, priority 2020, published 2023)
# Assays:
# [1] = biological target: T1, human A2A adenosine receptor (Homo sapiens, UniProt P29274); test: A2A binding affinity, Method (A): radioligand filtration binding with [3H]SCH58261; settings: membranes of HEK293 or CHO cells expressing the human receptor
# T1 construct: expressed in transfected cells; host or cells: HEK293 or CHO cells
# Source text: (§1) Method (A) describes the procedure used to measure A2A binding affinity using radioligand binding. Method (B) describes the procedure used to measure A2A binding affinity using SPA technology. The method used to measure A2B binding affinity is also described below. The method used to determine the A2A IC50 value reported for each compound in the table is indicated next to the reported value. The A2B IC50 value measured using the A2B binding affinity assay is shown in the table next to the compound under the corresponding A2A value.
# The A2A receptor affinity binding assay measured the amount of binding of a tritiated ligand with high affinity for the A2A adenosine receptor to membranes made from HEK293 or CHO cells recombinantly expressing the human A2A adenosine receptor, in the presence of varying concentrations of a compound of the invention. The data were generated using either filtration binding or a homogenous scintillation proximity assay (SPA).
# Method (A): Measurement of A2A Binding Affinity Using Radioligand Binding
# 148 µL (5 µg/mL) membranes (Perkin Elmer, Cat. No. RBHA2aM400UA) and 2 µL compounds of the invention to be tested (test compound) were transferred to individual wells of a 96-well polypropylene assay plate and incubated for 15 to 30 min at room temperature. [^3H] SCH58261 ((7-(2-phenylethyl)-5-amino-2-(2-furyl)-pyrazolo-[4,3-e]-1,2,4-triazolo[1,5-c]pyrimidine)) was diluted in assay buffer (50 mM Tris pH 7.4, 10 mM MgCl2, 0.005% Tween20) to a concentration of 4 nM and 50 µL transferred to each well of the assay plate. To define total and non-specific binding, wells containing 1% DMSO and 1 µM ZM241385 (Tocris Bioscience, Cat. No. 1036) respectively, were also included. The assay plate was incubated at room temperature for 60 min with agitation. Using a FilterMate Harvester® (Perkin Elmer), the contents of the assay plate were filtered through a UniFilter-96® PEI coated plate (Perkin Elmer Cat. No. 6005274 or 6005277). Filtering was achieved by aspirating the contents of the assay plate for 5 sec, then washing and aspirating the contents three times with ice-cooled wash buffer (50 mM Tris-HCl pH 7.4, 150 mM NaCl) and allowing the vacuum manifold to dry the plate for 30 sec. The filter plate was incubated for at least 1 h at 55° C. and allowed to dry. The bottom of the filter plate was sealed with backing tape. 40 µL Ultima Gold™ (Perkin Elmer, Cat. No. 6013329) was added to each well of the filter plate and the top of the plate was sealed with TopSeal-A PLUS® clear plate seal (Perkin Elmer, Cat. No. 6050185). The plate was incubated for at least 20 min, and then the amount of radioactivity remaining in each well was determined using a TopCount® (Perkin Elmer) scintillation counter. After normalization to total and non-specific binding, the percent effect at each compound concentration was calculated. The plot of percent effect versus the log of compound concentration was analyzed electronically using a 4-parameter logistic fit based on the Levenberg-Marquardt algorithm to generate IC50 values.
# [2] = biological target: T2, human A2B adenosine receptor (Homo sapiens, UniProt P29275); test: A2B binding affinity, radioligand filtration binding assay; settings: membranes of HEK293 cells expressing human A2B
# T2 construct: purchased Perkin Elmer ES-013-C; host or cells: HEK293 cells
# T2 sequence (P29275 1-332): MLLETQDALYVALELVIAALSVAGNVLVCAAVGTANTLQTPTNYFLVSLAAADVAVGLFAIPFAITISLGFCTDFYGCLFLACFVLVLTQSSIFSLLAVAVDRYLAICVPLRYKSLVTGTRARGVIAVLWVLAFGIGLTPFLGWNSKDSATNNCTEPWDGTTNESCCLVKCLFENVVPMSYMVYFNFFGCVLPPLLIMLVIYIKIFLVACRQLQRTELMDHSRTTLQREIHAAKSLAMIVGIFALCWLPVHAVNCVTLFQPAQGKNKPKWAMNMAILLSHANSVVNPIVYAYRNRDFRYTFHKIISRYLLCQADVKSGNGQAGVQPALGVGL
# Source text: as §1
# Measurement of A2B Binding Affinity
# The reported affinity of the compounds of the invention for the human A2B adenosine receptor was determined experimentally using a radioligand filtration binding assay. This assay measures the amount of binding of a tritiated proprietary A2B receptor antagonist, in the presence and absence of a compound of the invention, to membranes made from HEK293 cells recombinantly expressing the human A2B adenosine receptor (Perkin Elmer, Cat. No. ES-013-C). […] 148 µL (135 µg/mL) membranes and 2 µL test compounds were transferred to individual wells of a 96-well polypropylene assay plate and incubated for 15 to 30 min at room temperature with agitation. Tritiated radioligand was diluted to a concentration of 14 nM in assay buffer (phosphate buffered saline without Magnesium and Calcium, pH 7.4; GE Healthcare Life Sciences, Cat. No. SH30256.01) and then 50 µL of the solution were transferred to each well of the assay plate. To define total and non-specific binding, wells containing 1% DMSO and 20 µM N-ethylcarboxamidoadenosine (Tocris Bioscience, Cat. No. 1691) respectively, were also included. The wells of the assay plate were incubated at room temperature for 60 min with agitation, then filtered using a FilterMate Harvester® (Perkin Elmer) or similar equipment through a UniFilter-96® PEI coated plate (Perkin Elmer Cat. No. 6005274 or 6005277). Filtering was achieved by aspirating the contents of the assay plate for 5 sec, then washing and aspirating the contents three times with ice-cooled wash buffer (assay buffer supplemented with 0.0025% Brij58) and allowing the vacuum manifold to dry the plate for 30 sec. The filter plate was incubated for at least 1 h at 55° C. and allowed to dry. The bottom of the filter plate was then sealed with backing tape. 40 µL Ultima Gold™ (Perkin Elmer, Cat. No. 6013329) was added to each well of the filter plate and the top of the plate was sealed with TopSeal-A PLUS® clear plate seal (Perkin Elmer, Cat. No. 6050185). The plates were then incubated for at least 20 min, and then the amount of radioactivity remaining in each well was determined using a TopCount® (Perkin Elmer) scintillation counter. After normalization to total and non-specific binding, the percent effect at each compound concentration was calculated. The plot of percent effect versus the log of compound concentration was analyzed electronically using a 4-parameter logistic fit based on the Levenberg-Marquardt algorithm to generate IC50 values.
# T1 sequence (P29274 whole entry): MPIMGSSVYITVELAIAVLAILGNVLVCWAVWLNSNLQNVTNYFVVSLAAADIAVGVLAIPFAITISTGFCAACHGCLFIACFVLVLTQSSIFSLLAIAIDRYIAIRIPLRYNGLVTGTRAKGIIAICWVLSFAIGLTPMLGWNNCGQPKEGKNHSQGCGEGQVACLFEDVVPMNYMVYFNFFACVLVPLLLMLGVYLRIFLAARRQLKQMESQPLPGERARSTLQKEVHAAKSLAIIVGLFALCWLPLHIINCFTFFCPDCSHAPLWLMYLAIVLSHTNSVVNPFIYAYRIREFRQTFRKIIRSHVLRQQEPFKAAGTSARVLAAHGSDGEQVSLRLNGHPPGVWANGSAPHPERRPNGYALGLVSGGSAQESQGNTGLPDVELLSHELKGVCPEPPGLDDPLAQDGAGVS
IC50 [1],IC50 ([2]; value given with mark (A)),IC50 ([2]; value printed with mark (B)),SMILES
0.1 nM,,1040 nM,"COc1cccc2c1nc(N)n1nc(CNCc3cnn(C)c3)nc21 [Example 11.3, 7-methoxy-2-((((1-methyl-1H-pyrazol-4-yl)methyl)amino)methyl)-[1,2,4]triazolo[1,5-c]quinazolin-5-amine]"
0.3 nM,3.7 nM,,"COc1cc(F)cc2c1nc(N)n1nc(CNCc3ccc(C(O)(C(F)F)C(F)F)cc3)nc21 [Example 11.6, 2-(4-((((5-amino-9-fluoro-7-methoxy-[1,2,4]triazolo[1,5-c]quinazolin-2-yl)methyl)amino)methyl)phenyl)-1,1,3,3-tetrafluoropropan-2-ol]"
0.6 nM,116 nM,,"COc1cccc2c1nc(N)n1nc(CNS(=O)(=O)C3CC3)nc21 [Example 12.2, N-((5-amino-7-methoxy-[1,2,4]triazolo[1,5-c]quinazolin-2-yl)methyl)cyclopropanesulfonamide]"
0.2 nM,1 nM,,"COc1cc(F)cc2c1nc(N)n1nc(CNCc3ccc(C(O)(C(F)(F)F)C(F)(F)F)cc3)nc21 [Example 11.5, 2-(4-((((5-amino-9-fluoro-7-methoxy-[1,2,4]triazolo[1,5-c]quinazolin-2-yl)methyl)amino)methyl)phenyl)-1,1,1,3,3,3-hexafluoropropan-2-ol]"
2.1 nM,15.6 nM,,"COc1cc(F)cc2c1nc(N)n1nc(CNCc3ccc(S(N)(=O)=O)cc3)nc21 [Example 11.11, 4-((((5-amino-9-fluoro-7-methoxy-[1,2,4]triazolo[1,5-c]quinazolin-2-yl)methyl)amino)methyl)benzenesulfonamide]"
9.1 nM,,,"COc1cccc2c1nc(N)n1nc(CN3CC(c4ccncc4)C3)nc21 [Example 11.14, 7-methoxy-2-((3-(pyridin-4-yl)azetidin-1-yl)methyl)-[1,2,4]triazolo[1,5-c]quinazolin-5-amine]"
0.1 nM,,2.9 nM,"COc1cc(F)cc2c1nc(N)n1nc(CNCc3ccc(C(C)(C)O)cc3)nc21 [Example 11.4, 2-(4-((((5-amino-9-fluoro-7-methoxy-[1,2,4]triazolo[1,5-c]quinazolin-2-yl)methyl)amino)methyl)phenyl)propan-2-ol]"
0.9 nM,,,"COc1cccc2c1nc(N)n1nc(CCN(C)c3cnn(C)c3)nc21 [Example 24.4, 7-methoxy-2-(2-(methyl(1-methyl-1H-pyrazol-4-yl)amino)ethyl)-[1,2,4]triazolo[1,5-c]quinazolin-5-amine]"
3.7 nM,,,"COc1cccc2c1nc(N)n1nc(CN3CC(n4cccn4)C3)nc21 [Example 11.12, 2-((3-(1H-pyrazol-1-yl)azetidin-1-yl)methyl)-7-methoxy-[1,2,4]triazolo[1,5-c]quinazolin-5-amine]"

# The next lines start with the molecule.
SMILES,IC50 [1],IC50 ([2]; value given with mark (A)),IC50 ([2]; value printed with mark (B))
"COc1cc(F)cc2c1nc(N)n1nc(CNCc3ccc(C(C)(O)C(F)(F)F)cc3)nc21 (single isomer, unassigned) [Example 11.8B, (R or S)-2-(4-((((5-amino-9-fluoro-7-methoxy-[1,2,4]triazolo[1,5-c]quinazolin-2-yl)methyl)amino)methyl)phenyl)-1,1,1-trifluoropropan-2-ol]",0.4 nM,2.9 nM,
"COc1cc(F)cc2c1nc(N)n1nc(CNCc3ccc(C(O)C(F)(F)F)cc3)nc21 (single isomer, unassigned) [Example 11.7A, (S or R)-1-(4-((((5-amino-9-fluoro-7-methoxy-[1,2,4]triazolo[1,5-c]quinazolin-2-yl)methyl)amino)methyl)phenyl)-2,2,2-trifluoroethan-1-ol]",0.5 nM,21.2 nM,
"COc1cc(F)cc2c1nc(N)n1nc(CNCc3ccc(C(C)(O)C(F)(F)F)cc3)nc21 (single isomer, unassigned) [Example 11.8A, (S or R)-2-(4-((((5-amino-9-fluoro-7-methoxy-[1,2,4]triazolo[1,5-c]quinazolin-2-yl)methyl)amino)methyl)phenyl)-1,1,1-trifluoropropan-2-ol]",0.8 nM,11.3 nM,
"COc1cc(F)cc2c1nc(N)n1nc(CNCc3ccc(C(O)C(F)(F)F)cc3)nc21 (single isomer, unassigned) [Example 11.7B, (R or S)-1-(4-((((5-amino-9-fluoro-7-methoxy-[1,2,4]triazolo[1,5-c]quinazolin-2-yl)methyl)amino)methyl)phenyl)-2,2,2-trifluoroethan-1-ol]",0.5 nM,14.7 nM,
"COc1cc(F)cc2c1nc(N)n1nc(CNC(=O)c3c(F)cc(C(C)(C)O)cc3F)nc21 [Example 3.4, N-((5-amino-9-fluoro-7-methoxy-[1,2,4]triazolo[1,5-c]quinazolin-2-yl)methyl)-2,6-difluoro-4-(2-hydroxypropan-2-yl)benzamide]",11.1 nM,,
"COc1cccc2c1nc(N)n1nc(CNC(=O)c3ccc(S(N)(=O)=O)cc3)nc21 [Example 4.10, N-((5-amino-7-methoxy-[1,2,4]triazolo[1,5-c]quinazolin-2-y1)methyl)-4-sulfamoylbenzamide]",636 nM,,
"COc1cccc2c1nc(N)n1nc(CN(C)C(=O)c3ccc(C(C)(C)O)cc3)nc21 [Example 1.2, N-((5-amino-7-methoxy-[1,2,4]triazolo[1,5-c]quinazolin-2-yl)methyl)-4-(2-hydroxypropan-2-yl)-N-methylbenzamide]",0.3 nM,,
COc1cccc2c1nc(N)n1nc(CNC(=O)c3c(C)cc(C(C)(C)O)cc3C)nc21 [Entry 1.3],10.2 nM,,
